PMC2585076, “Development of selective blockers for Ca^2+-activated Cl^- channel using Xenopus laevis oocytes with an improved drug screening strategy” (Molecular Brain, 2008)
Like-named read-outs stand apart in the source and are kept apart here. Values belong to the molecule of their own block, whether it stands above or below them.

Key:
[1] = target: T1, Ca^2+-activated Cl^- channel (CaCC) (Xenopus laevis, UniProt B5SVV6); conditions: endogenous CaCCs in Xenopus laevis oocytes, TEVC; read-out: IC50 * (IC50 previously studied); cited from earlier work
[2] = target: T1, Ca^2+-activated Cl^- channel (CaCC); type: cell-based; conditions: block of Cl^- current induced by 5 mM external Ca^2+, ionomycin then thapsigargin treated oocytes, chelerythrine in intracellular solution, holding potential -60 mV

T1 sequence (B5SVV6 entry or part of it): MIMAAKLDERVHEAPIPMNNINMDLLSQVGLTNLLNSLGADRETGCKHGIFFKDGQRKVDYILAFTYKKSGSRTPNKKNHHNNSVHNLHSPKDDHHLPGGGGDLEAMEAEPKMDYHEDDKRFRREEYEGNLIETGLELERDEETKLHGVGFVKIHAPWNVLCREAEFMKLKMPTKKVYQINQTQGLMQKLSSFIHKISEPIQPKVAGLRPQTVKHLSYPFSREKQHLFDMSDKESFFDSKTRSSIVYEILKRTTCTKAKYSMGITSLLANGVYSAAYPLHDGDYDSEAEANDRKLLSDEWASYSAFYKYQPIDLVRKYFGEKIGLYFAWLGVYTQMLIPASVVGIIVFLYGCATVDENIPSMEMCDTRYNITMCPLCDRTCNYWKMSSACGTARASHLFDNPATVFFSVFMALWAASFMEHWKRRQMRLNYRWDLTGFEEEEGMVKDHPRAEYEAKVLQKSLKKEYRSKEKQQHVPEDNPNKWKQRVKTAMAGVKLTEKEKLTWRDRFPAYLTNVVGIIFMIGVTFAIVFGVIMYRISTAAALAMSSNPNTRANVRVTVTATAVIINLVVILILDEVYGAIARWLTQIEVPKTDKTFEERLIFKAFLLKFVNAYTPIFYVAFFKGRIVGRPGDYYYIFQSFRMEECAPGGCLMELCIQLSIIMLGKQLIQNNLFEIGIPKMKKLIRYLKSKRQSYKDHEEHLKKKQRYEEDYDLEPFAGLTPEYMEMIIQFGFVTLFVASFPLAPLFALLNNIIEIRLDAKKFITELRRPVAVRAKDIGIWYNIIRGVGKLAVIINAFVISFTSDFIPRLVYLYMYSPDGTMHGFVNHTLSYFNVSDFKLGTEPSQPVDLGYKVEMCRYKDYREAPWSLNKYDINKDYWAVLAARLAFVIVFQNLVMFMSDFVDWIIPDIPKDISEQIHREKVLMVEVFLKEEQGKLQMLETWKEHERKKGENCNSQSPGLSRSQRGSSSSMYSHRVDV

SMILES: O=C(O)c1ccccc1Nc1ccccc1 [DPC, diphenylamine-2-carboxylate]
IC50 [1]: 111 µM

SMILES: O=C(O)c1ccccc1Nc1ccc(C(F)(F)F)cc1 [N-(4-trifluoromethylphenyl)anthranilic acid]
IC50 ([2]; read-out: IC50): 6 µM

IC50 [2]: low potency
SMILES: O=C(O)c1ccccc1Nc1ccccc1[N+](=O)[O-] [N-(2-Nitrophenyl)-anthranilic acid]
